This passage reports pest or weed control results from patent publication US20240122179A1, “AUXINIC HERBICIDES AND METHODS OF USE THEREOF” (CORTEVA AGRISCIENCE LLC, priority 2021, published 2024).

Holding throughout (experiment): Postemergence herbicide evaluation, percent reduction in plant size vs untreated control, 21 days after treatment
Assay [1] relates to Conyza canadensis (L.) (ERICA). Type of assay: in vivo, Conyza canadensis (L.) (Horseweed). The settings on record: Erigeron canadensis, post-emergence, 504 h, ERICA, postemergence, read-out: Control/Injury; for pest or weed control at 140 g/ha: rate 140 g ae/ha; for pest or weed control at 280 g/ha: rate 280 g ae/ha. The method, then:
(§1) Plants were grown in a soil media composed of 90% by volume Promix BX (Premier Tech Horticulture, Quakertown, PA) and 10% Profile Greens Grade (Profile Products LLC, Buffalo Grove, IL). Promix BX contains approximately 83% Sphagnum Peat Moss, 13% Perlite, 5% vermiculite, and proprietary amounts of limestone, starter fertilizer, and wetting agent. Profile Greens Grade is a sand-sized granule formed from calcining illite and montmorillonite clay. Several seeds of each species were planted in 10 cm square pots and top watered twice daily. Plant material was propagated in a warm greenhouse with temperature ranging from 25 to 28° C. and 50 to 60% relative humidity at the Corteva Global Headquarters (Indianapolis, Indiana, USA). Natural light was supplemented with 1000-watt metal halide overhead lamps with an average illumination of 500 μE m^−2 s^−1 photosynthetic active radiation for 16 consecutive hours each day. Plants were top-watered prior to herbicide application and sub-watered after herbicide application.
(§2) Appropriate amounts of test materials were weighed out into glass vials in their technical form to deliver either 140 or 280 g acid equivalent (ae)/ha. The samples were dissolved in 3 ml of Solvent 1. Solvent 1 is 97% acetone and 3% dimethyl sulfoxide and serves as a general-purpose solvent (GPS) for dissolving technical materials. […] The samples were then diluted to their final concentration using 17 ml of solvent 2 for a total of 20 ml of spray solution. Solvent 2 contains 41.58% GPS, 45.53% water, 11.88% isopropyl alcohol, 0.99% crop oil concentrate and 0.02% Trition X-155 surfactant. All percentages are listed on a volume basis. Dicamba diglycolamine was applied as a formulated herbicide, Clarity™ and diluted with solvent 2 to compare all materials in the same spray solution.
(§3) Herbicide applications were made to 3 to 4 replicates of each plant species at the 2 to 8 leaf stage, depending on the species. Treatments were applied with a research track-sprayer (Generation III Research Sprayer manufactured by DeVries Manufacturing in Hollandale, MN, USA) calibrated to deliver a spray volume of 187 L/ha. The track-sprayer was fitted with an 8003E nozzle from Spray Systems Company (North Avenue and Schmale Road, P.O. Box 7900, Wheaton, IL 60187), and used a spray pressure of 276 kPa pressure and a speed of 3.1 km/h. The nozzle height was 46 cm above the plant canopy. The experimental design used for the trials was a randomized complete block with 3 or 4 replications per treatment. After application, plants were placed on carts according to the randomization and returned to the greenhouse. Plants were sub-watered after treatment with Indianapolis city water or fertilized three times a week with a commercial fertilizer solution (Jack's Professional 15-5-15 4 Ca 2 Mg fertilizer (manufactured by JR PETERS INC., 6656 Grant Way, Allentown, PA 18106; www.jrpeters.com). Percent visual control assessments were made on a scale of 0 to 100% (where 0 was no control and 100 was complete plant death) at 7, 14, and 21 days after treatment.
In conformity with the methods outlined in Example 49, the effect of representative experimental compounds on the growth of Conyza canadensis (L.), (ERICA), common name, Horseweed, was determined at 2 different levels (respectively, 140 and 280 g acid equivalent (ae)/ha) of the experimental actives tested. Plants were treated with one of the compounds, a control plant was not treated. Twenty-one days after treatment, the plants were measured. The data is present as a percent reduction in plant size relative to the untreated control.

The test system of a further assay is Kochia scoparia (KCHSC). Type of assay: in vivo. As to conditions: Bassia scoparia, post-emergence, 504 h, KCHSC, postemergence, percent reduction vs untreated, 21 days after treatment, read-out: Control/Injury; for pest or weed control at 140 g/ha: rate 140 g ae/ha; for pest or weed control at 280 g/ha: rate 280 g ae/ha. The method, then: as §1, §2, §3
In conformity with the methods outlined in Example 49, the effect of representative experimental compounds on the growth of Kochia scoparia (KCHSC) was determined at 2 different levels (respectively, 140 and 280 g acid equivalent (ae)/ha) of the experimental actives tested. Plants were treated with one of the compounds, a control plant was not treated. Twenty-one days after treatment, the plants were measured. The data is present as a percent reduction in plant size relative to the untreated control.

Another assay deals with Amaranthus rudis (AMATA). Type of assay: in vivo, Amaranthus rudis (tall water hemp). As to conditions: Amaranthus tuberculatus, post-emergence, 504 h, AMATA, postemergence, read-out: Control/Injury; for pest or weed control at 140 g/ha: rate 140 g ae/ha; for pest or weed control at 280 g/ha: rate 280 g ae/ha. The method, then: as §1, §2, §3
In conformity with the methods outlined in Example 49, the effect of representative experimental compounds on the growth of Amaranthus rudis (AMATA), common name tall water hemp, was determined at 2 different levels (respectively, 140 and 280 g acid equivalent (ae)/ha) of the experimental actives tested. Plants were treated with one of the compounds, a control plant was not treated. Twenty-one days after treatment, the plants were measured. The data is present as a percent reduction in plant size relative to the untreated control.

Assay [2] has as its system Ambrosia artemisiifolia (AMBEL). It is filed as in vivo, Ambrosia artemisiifolia (common ragweed). The settings on record: post-emergence, 504 h, AMBEL, postemergence, read-out: Control/Injury; for pest or weed control at 140 g/ha: rate 140 g ae/ha; for pest or weed control at 280 g/ha: rate 280 g ae/ha. The method, then:
as §1, §2, §3
In conformity with the methods outlined in Example 49, the effect of representative experimental compounds on the growth of Ambrosia artemisiifolia (AMBEL), (common ragweed), was determined at 2 different levels (respectively, 140 and 280 g acid equivalent (ae)/ha) of the experimental actives tested. Plants were treated with one of the compounds, a control plant was not treated. Twenty-one days after treatment, the plants were measured. The data is present as a percent reduction in plant size relative to the untreated control.

The subject of assay [3] is Amaranthus palmeri (AMAPA). It is filed as in vivo, Amaranthus palmeri (Palmer amaranth). As to conditions: post-emergence, 504 h, AMAPA, postemergence, read-out: Control/Injury; for pest or weed control at 140 g/ha: rate 140 g ae/ha; for pest or weed control at 280 g/ha: rate 280 g ae/ha. The method, then: as §1, §2, §3
In conformity with the methods outlined in Example 49, the effect of representative experimental compounds on the growth of Amaranthus palmeri (AMAPA), common name, Palmer amaranth, was determined at 2 different levels (respectively, 140 and 280 g acid equivalent (ae)/ha) of the experimental actives tested. Plants were treated with one of the compounds, a control plant was not treated. Twenty-one days after treatment, the plants were measured. The data is present as a percent reduction in plant size relative to the untreated control.

In the case of `COc1c(Cl)ccc(Cl)c1C(=O)Oc1nccs1` [Compound A-103], the pest or weed control at 140 g/ha in assay [1] is 0%; in the assay on Kochia scoparia (KCHSC) it was 0%; in the assay with Amaranthus rudis (AMATA), 8%; in assay [2], 28%; in assay [3], 35%. Moreover, the pest or weed control at 280 g/ha was found to be 3% in assay [1]; 3% in the assay with Kochia scoparia (KCHSC); 18% in the assay on Amaranthus rudis (AMATA); 12% in assay [2]; 30% in assay [3].

In the case of `COc1c(Cl)ccc(Cl)c1C(=O)N1CCCCO1` [Compound A-104], the pest or weed control at 140 g/ha in assay [1] amounted to 0%; in the assay with Kochia scoparia (KCHSC), 3%; with Amaranthus rudis (AMATA), 73%; in assay [2] it was 5%; in assay [3], 45%. In addition, the pest or weed control at 280 g/ha was determined as 10% in assay [1]; 13% in the assay with Kochia scoparia (KCHSC); 92% in the assay with Amaranthus rudis (AMATA); 15% in assay [2]; 65% in assay [3].

In the case of `COc1c(Cl)ccc(Cl)c1C(=O)Nc1ccon1` [Compound A-106], the pest or weed control at 140 g/ha in assay [1] came to 5%; in the assay with Kochia scoparia (KCHSC), 3%; with Amaranthus rudis (AMATA) it was 25%; in assay [2], 25%; in assay [3], 25%. For the same compound, the pest or weed control at 280 g/ha in assay [1] amounted to 10%; in the assay on Kochia scoparia (KCHSC), 3%; in the assay with Amaranthus rudis (AMATA), 28%; in assay [2], 28%; in assay [3], 20%.

In the case of `CCN(CC)C(=O)c1c(Cl)ccc(Cl)c1OC` [Compound A-107], the pest or weed control at 140 g/ha in assay [1] came out at 3%; in the assay with Kochia scoparia (KCHSC), 0%; in the assay with Amaranthus rudis (AMATA), 2%; in assay [2], 10%; in assay [3] it was 9%. The pest or weed control at 280 g/ha in assay [1] came to 5%; in the assay on Kochia scoparia (KCHSC) it was 0%; in the assay with Amaranthus rudis (AMATA), 18%; in assay [2], 18%; in assay [3], 18%.

Consider `COc1c(Cl)ccc(Cl)c1C(=O)NNc1nc(C)cs1` [Compound A-108], for which the pest or weed control at 140 g/ha in assay [1] was found to be 5%; in the assay with Kochia scoparia (KCHSC), 0%; with Amaranthus rudis (AMATA), 18%; in assay [2], 5%; in assay [3], 8%. Further, the pest or weed control at 280 g/ha in assay [1] worked out at 8%; in the assay with Kochia scoparia (KCHSC), 3%; in the assay on Amaranthus rudis (AMATA), 28%; in assay [2], 15%; in assay [3] it was 28%.

Take `COc1c(Cl)ccc(Cl)c1C(=O)NNc1nc2ccccc2o1` [Compound A-109]: the pest or weed control at 140 g/ha came to 3% in assay [1]; 0% with Kochia scoparia (KCHSC); 2% in the assay on Amaranthus rudis (AMATA); 23% in assay [2]; 8% in assay [3]. The pest or weed control at 280 g/ha in assay [1] was found to be 5%; with Kochia scoparia (KCHSC), 3%; in the assay on Amaranthus rudis (AMATA) it was 3%; in assay [2], 20%; in assay [3] it was 5%.

Turning to `COc1c(Cl)ccc(Cl)c1C(=O)NNCc1ccccc1` [Compound A-111], the pest or weed control at 140 g/ha turned out to be 8% in assay [1]; 5% in the assay on Kochia scoparia (KCHSC); 18% in the assay with Amaranthus rudis (AMATA); 25% in assay [2]; 20% in assay [3]. The pest or weed control at 280 g/ha was 10% in assay [1]; 5% in the assay with Kochia scoparia (KCHSC); 28% in the assay with Amaranthus rudis (AMATA); 35% in assay [2]; 33% in assay [3].

As to `CCCNNC(=O)c1c(Cl)ccc(Cl)c1OC` [Compound A-112], the pest or weed control at 140 g/ha turned out to be 10% in assay [1]; 0% in the assay on Kochia scoparia (KCHSC); 13% with Amaranthus rudis (AMATA); 18% in assay [2]; 18% in assay [3]. Moreover, the pest or weed control at 280 g/ha in assay [1] worked out at 10%; in the assay with Kochia scoparia (KCHSC) it was 18%; with Amaranthus rudis (AMATA), 20%; in assay [2], 38%; in assay [3], 33%.

As for `COc1c(Cl)ccc(Cl)c1C(=O)n1ncc2ccccc21` [Compound A-113], the pest or weed control at 140 g/ha is 50% in assay [1]; 85% in the assay on Kochia scoparia (KCHSC); 50% in the assay with Amaranthus rudis (AMATA); 70% in assay [2]; 40% in assay [3]. Moreover, the pest or weed control at 280 g/ha in assay [1] stood at 99%; in the assay with Kochia scoparia (KCHSC), 93%; with Amaranthus rudis (AMATA), 63%; in assay [2], 90%; in assay [3] it was 70%.
